Measured values: patent US9289003B2, “Use of compounds involved in biosynthesis of nucleic acids as cryoprotective agents” (CHR. HANSEN A/S, priority 2003, dated 2016)
“Also recorded” adds a separate entry of the source.

Legend:
bacterial cultures = test: Cryoprotection of bacterial cultures, summary statements of the description; assay type: cell-based; conditions: summary of the experiments (examples 12 and 15 cited for adenosine)
[1] = system: F-DVS™ CH-N 19 (frozen LD-culture); test: Acidifying activity assay of frozen concentrated F-DVS CH-N 19 culture; assay type: cell-based; conditions: Example 15; 1 day and 6 days at −50° C; 0,005% w/v inoculum, 6 hrs at 30° C; Na-formate 3% w/w
Procedure: The additives and concentrates were mixed for 30 minutes and subsequently 150 g of the two portions was frozen in liquid nitrogen. […] Culture activity in milk (heat sterilized LAB-milk) was measured.
The concentration of the various additives is given in the figures as % w/w per gram concentrated biomass.
Culture activity in milk (LAB-milk) was measured as acidification activity after 1 day (FIG. 13) and 6 days (FIG. 14) of storage at −50° C. The activity assay is based on a 0,005% w/v inoculum and 6 hrs incubation at 30° C.

[2] = system: freeze-dried LD-culture of Fl-Da N; test: Acidifying activity assay of freeze-dried Fl-Da N culture (FD-DVS); assay type: cell-based; conditions: 3% w/w additive, 0.005% inoculum
Procedure: Frozen culture was inoculated on a 0.01% (w/w) level in 200 ml UHT-sterilized reconstituted skimmed milk (RSM) containing 9.5% (w/w) solid matter and heated at 99° C. for 30 minutes (LAB-milk). The RSM was incubated at 30° C. for 6 h to permit acidification of the substrate material. The acidification activity was measured as described in Example 6: Analytical Procedure QAm-052, “acidification activity—UHT”, Chr. Hansen A/S (Denmark).
(§1) The additive was added to the concentrate as a 30% sterile solution.
To simulate the situation encountered in the industrial situation during a freezing process, the additives and concentrates were mixed and stored for 5 hours at 8° C. and subsequently frozen in liquid nitrogen and further stored at −50° C. for one day before freeze-drying. After freeze-drying was completed the culture was stored at −50° C. until analysis. […] Culture activity in milk (LAB-rnilk) was measured after 7 days of storage at −50° C.
This example describes the stability of freeze-dried LDultures (FD-DVS) of Fl-Da-N formulated with and without a number of different additives, which may act as cryprotective agents. In the experiments the.concentration of the various additives were 3% w/w per gram concentrated biomass unless other vice indicated in the figures.
After fermentation, biomass was harvested and concentrated via centrifugation from fermentation broth of Fl-Da N as described in the Materials and Method section. The cell concentrate was divided into a number of portions and was added to each of the portions. To simulate the situation encountered in the industrial situation during a freezing process, the additives and concentrates were mixed and stored for 5 hours at 8° C. and subsequently frozen in liquid nitrogen and further stored at −50° C. for one day before freezedrying. After freeze-drying was completed the culture was stored at −50° C. until analysis. […] Culture activity in milk (LAB-milk) was measured by the acidifying activity assay after 1 day and after 2 months of storage at −50° C.

[3] = system: F-DVS™ Fl-Da N (frozen LD-culture); test: Acidifying activity assay of frozen concentrated F-DVS Fl-Da N culture stored at −50° C; assay type: cell-based; conditions: 3% w/w additive; for reduction in stability of culture without additive relative to culture stabilized by additive / loss of acidification activity of culture without additive: 13 days at −50° C; for reduction in stability of culture without additive relative to culture stabilized by additive: 0.01% inoculum, pH after 6 hrs at 30° C; for loss of acidification activity of culture without additive: corresponds to the pH difference; for ranking as cryoprotective during prolonged storage: storage extended to 21 or 49 days at −50° C
Procedure: In this example the stability measured by the acidification activity of a commercially produced LD-culture: F-DVS™ FI-Da N (Chr. Hansen A/S Item. No. 501691) was followed over a period of 6 months. The culture was produced and stored at −50° C. as described in the Materials and Methods section.
In contrast to what is common the first activity-measurement in this example was performed immediately after the culture were frozen as pellets in liquid nitrogen and followed by measurements after 1, 2, 12, 20 and 188 days of storage at −50° C.
as §1
To simulate a situation similar to the industrial situation during the freezing process the additives and concentrates were mixed and stored for 5 hours at 8° C. and subsequently frozen in liquid nitrogen and further stored at −50° C. […] Culture activity in milk (LAB-milk) was measured the same day as the frozen cultures were formulated.
Culture activity in milk (LAB-milk) was measured the same day as the cultures were frozen and the activity was followed periodically up to 13 days.
Experimental details were as described in Example 10, with the exception that the activity was monitored for an extended period of time.

[4] = system: liquid lactic acid-bacterial starter culture concentrates; conditions: 3% Na-formate; cited from earlier work

**Q.** For Nc1ncnc2c1ncn2[C@@H]1O[C@H](COP(=O)(O)O)[C@@H](O)[C@H]1O [AMP, adenosine-5′-monophosphate], which “effectiveness as cryoprotective agent” value (bacterial cultures) is on record?
**A.** but not AMP is effective as a cryoprotective agent

**Q.** What about the “effect on activity/stability of frozen culture” value [1] of the same compound?
**A.** harmful to the activity of the culture

**Q.** With Nc1ccn([C@@H]2O[C@H](COP(=O)(O)O)[C@@H](O)[C@H]2O)c(=O)n1 [CMP, cytidine-5′-monophosphate] as the compound, how does the “effect on stability of freeze-dried culture” value ([2]; 2 months of storage at −50° C) read?
**A.** preferred

**Q.** Which “reduction in stability of culture without additive relative to culture stabilized by additive” value [3] does the source give for Nc1nc2c(ncn2[C@@H]2O[C@H](COP(=O)(O)O)[C@@H](O)[C@H]2O)c(=O)[nH]1 [GMP, guanosine-5′-monophosphate] here?
**A.** 0,31 pH units

**Q.** And the “loss of acidification activity of culture without additive” value [3]?
**A.** 50%

**Q.** What about the “ranking as cryoprotective during prolonged storage” value [3] of the same compound?
**A.** better that IMP

**Q.** Which results are given for OC[C@H]1O[C@@H](n2cnc3c(O)ncnc32)[C@H](O)[C@@H]1O [Inosine, inosine]?
**A.** reduction in stability of culture without additive relative to culture stabilized by additive [3]: 0.41 pH units; loss of acidification activity of culture without additive [3]: 60%; ranking as cryoprotective during prolonged storage [3]: better cryoprotective of F-DVS™ FI-Da N than GMP; effectiveness as cryoprotective agent (bacterial cultures): very effective as a cryoprotective agent; effect on stability of freeze-dried culture ([2]; one day of storage at −50° C): highly efficient to ensure stability of the culture

**Q.** What does the source list for O=C[O-].[Na+] [Na-formate]?
**A.** effect on storage stability of liquid starter culture concentrates [4]: effective to increase the storage stability of liquid lactic acid-bacterial starter culture concentrates; effect on activity/stability of frozen culture [1]: detrimental for frozen cultures; also recorded: detrimental to the activity of frozen cultures; also recorded: decrease the storage stability of frozen lactic acid bacterial starter culture

**Q.** Which “effect on stability of freeze-dried culture” value ([2]; 2 months of storage at −50° C) does the source give for O=c1ccn([C@@H]2O[C@H](COP(=O)(O)O)[C@@H](O)[C@H]2O)c(=O)[nH]1 [UMP, uranosine-5′-monophosphate] here?
**A.** preferred

**Q.** Which “effectiveness as cryoprotective agent” value (bacterial cultures) does the source give for Nc1ncnc2c1ncn2[C@@H]1O[C@H](CO)[C@@H](O)[C@H]1O [adenosine, reference compound] here?
**A.** appears to decrease the stability of bacterial cultures

**Q.** And the “effect on activity/stability of frozen culture” value [1]?
**A.** harmful to the activity of the culture

**Q.** What about the “effect on stability of freeze-dried culture” value ([2]; 2 months of storage at −50° C) of the same compound?
**A.** harmful to the culture

**Q.** What about the “effect on stability of freeze-dried culture” value ([2]; one day of storage at −50° C) of the same compound?
**A.** highly efficient to ensure stability of the culture
